Assay results published in patent US20250387348A1, “NEPHROPROTECTIVE USEFUL AGENT” (WATANABE OYSTER LABORATORY, CO., LTD., priority 2022, published 2025).

Columns and labels:
[1] = test system: BIK and ENDOG genes in HK-2 cells; test: qPCR expression of cell and mitochondrial damage-related genes; assay type: cell-based, human; conditions: 24 hours
Source text: Under oxidative stress stimulation, ENDOG that resides in a mitochondrion migrates to the nucleus and acts on nuclear DNA fragmentation. In addition, when nuclear DNA is damaged, BIK increases and acts with intramitochondrial factors, inducing apoptosis, a type of cell death (Li L Y, et al., Nature, 412:95-99, 2001; Kutuk O, et al., PLOS One, 12: e0182809, 2017).
Therefore, in the present invention, the effect of DHMBA on cell death markers BIK and ENDOG, which increase under oxidative stress stimulation, was verified.
The HK-2 cells were seeded into a 6-well plate to be 5.0×10^4 cells/well and cultured for 24 hours. Next, BSO and DHMBA were added in an amount of 2 mL/well to have a final concentration of BSO of 100 μM and a final concentration of DHMBA of 250 μM and 500 μM. After 24 hours, total RNA extraction was recovered using a NucleoSpin (registered trademark) RNA kit (MACHEREY-NAGEL). The concentration of purified RNA was quantified by the Nanodrop (Invitrogen). From 1.0 μg of total RNA, cDNA was synthesized according to the protocol of ReverTra ACE (registered trademark) qPCR RT Master Mix with gDNA Remover (TOYOBO). The gene expression levels were measured according to the protocol of THUNDERBIRD (registered trademark) SYBR (registered trademark) qPCR Mix (TOYOBO). The measurement was performed using the CFX Connect™ Real-Time PCR Detection System (BioRad), and analysis was performed by the 2^−(ΔΔCT) method.
A comparison was performed with the gene expression level of the control group as 1. The figure was expressed as a mean value±SD (n=4 for each group). Each expression level was corrected by the expression level of β-actin, which is a housekeeping gene.

[2] = test system: human renal proximal tubular cells HK-2; test: CCK-8 cell viability test under BSO oxidative stress; assay type: cell-based; conditions: 48 hours
Experimental: (§1) Human renal proximal tubular cells (HK-2) were subcultured using Dulbecco's Modified Eagle's Medium (DMEM, NACALAI TESQUE, INC.) containing 10% fetal bovine serum and 1% penicillin-streptmycin in a 5% CO2 incubator at 37° C.
(§2) In order to confirm the cytoprotective action of DHMBA on human renal proximal tubular cells HK-2 against oxidative stress, an oxidative stress inducer buthionine sulfoximine (BSO) was used to assess the toxicity and viability of the cells.
(§3) Specifically, the HK-2 cells were seeded into a 96-well plate to be 3.0×10^3 cells/well and cultured for 24 hours.
(§4) Next, BSO and DHMBA were added in an amount of 150 μL/well to have a final concentration of BSO of 100 μM and a final concentration of DHMBA of 1 μM to 500 μM. […] After the plate was allowed to stand for 30 minutes at room temperature, the absorbance at 490 nm was measured using a plate reader (Wallac 1420 ARVO Mx plate reader, PerkinElmer) to measure the cytotoxicity. In addition, a CCK-8 reagent (DOJINDO LABORATORIES) was added in an amount of 10 μL/well to the plate where the cells had been cultured, and after two hours of culture at 37° C., the absorbance at 450 nm was measured using a plate reader (Wallac 1420 ARVO Mx plate reader) to assess the viability of the cells. The toxicity and viability of the cells were calculated from the absorbance value relative to the control (0 μg/mL) (n=5 to 6 for each group).

[3] = test system: mitochondria of HK-2 cells; test: Mitochondrial morphology observation (MitoTracker Green FM / Hoechst 33342); assay type: cell-based, human; conditions: 24 hours
Experimental: Excessively produced ROS induces mitochondrial fission, causing mitochondrial fragmentation and dysfunction (Zorov D, et al., Cells, 8:175, 2019). In order to observe whether or not DHMBA influences mitochondrial morphological changes under oxidative stress stimulation, double staining of mitochondria and nuclei was performed using MitoTracker (registered trademark) Green FM (Thermo Fisher Scientific), which reacts to mitochondrial membrane potential differences, and Hoechst 33342 (DOJINDO LABORATORIES), which binds to nuclear DNA.
The HK-2 cells were seeded into 35 mm dishes to be 5.0×10^4 cells/dish and cultured for 24 hours. Next, BSO and DHMBA were added in an amount of 2 mL/well to have a final concentration of BSO of 100 μM and a final concentration of DHMBA of 250 μM and 500 μM. After 24 hours, a mixed solution of 0.1 μM MitoTracker (registered trademark) Green FM and 5 μg/mL Hoechst 33342 was added in an amount of 2 mL/dish, and the cells were cultured at 37° C. for 20 minutes and washed with PBS. Afterwards, 1 mL of PBS was added, and fluorescence images were obtained at 100 times using a fluorescence microscope BZ-9000 (Keyence).

[4] = test system: intracellular ROS in HK-2 cells; test: Intracellular ROS production level (DCFDA staining); assay type: cell-based, human; conditions: 24 hours
Experimental: The production level of intracellular ROS was measured to assess changes in intracellular ROS by DHMBA under oxidative stress stimulation.
The HK-2 cells were seeded into a black 96-well plate to be 3.0×10^3 cells/well and cultured for 24 hours. Next, BSO and DHMBA were added in an amount of 100 μL/well to have a final concentration of BSO of 100 μM and a final concentration of DHMBA of 250 μM and 500 μM. After 24 hours, a supernatant was removed, a DCFDA reagent (Sigma) diluted to 25 μM with serum-free DMEM was added in an amount of 100 μL/well, and the cells were cultured at 37° C. for 40 minutes. Furthermore, after the cells were washed with PBS, PBS was added in an amount of 100 μL/well, and fluorescence was measured using a plate reader (Wallac 1420 ARVO Mx plate reader) at an excitation wavelength of 485 nm and a fluorescence wavelength of 535 nm (n=6 for each group) and observed and photographed with a fluorescence microscope BZ-9000 (Keyence).

[5] = test system: intramitochondrial ROS in HK-2 cells; test: Intramitochondrial ROS production level (DHR123 staining); assay type: cell-based, human; conditions: 24 hours
Experimental: In order to verify the effect of DHMBA on the production of intramitochondrial ROS promoted by oxidative stress stimulation, the observation and measurement of fluorescence intensity of intramitochondrial ROS were performed using DHR123.
The HK-2 cells were seeded into a black 24-well plate to be 2.0×10^4 cells/well and cultured for 24 hours. Next, BSO and DHMBA were added in an amount of 500 μL/well to have a final concentration of BSO of 100 μM and a final concentration of DHMBA of 250 μM and 500 μM. After 24 hours, a supernatant was removed, a DHR123 reagent (FUJIFILM Wako Pure Chemical Corporation) diluted to 5 μM with serum-free DMEM was added in an amount of 250 μL/well, and the cells were cultured at 37° C. for 40 minutes.
Furthermore, after the cells were washed with PBS, 500 μL of PBS was added, observation was performed, and photos were taken using a fluorescence microscope BZ-9000 (Keyence). Then, after the cells were peeled from the bottom with a scraper and pipetted sufficiently, an amount of 200 μL/well was moved to a black 96-well plate, and fluorescence was measured using a plate reader (Wallac 1420 ARVO Mx plate reader) at an excitation wavelength of 505 nm and a fluorescence wavelength of 534 nm (n=6 for each group).

[6] = test system: mitochondria of HK-2 cells; test: Mitochondrial respiration capacity (oxygen consumption rate, extracellular flux analyzer XFp); assay type: cell-based, human
Experimental: The action of DHMBA improving mitochondrial respiration capacity under oxidative stress was examined using an extracellular flux analyzer XFp (Agilent Technologies).
The HK-2 cells were seeded into the XFp Cell Culture Miniplate (Agilent Technologies) to be 1.5×10^4 cells/well and cultured for 24 hours. Next, BSO and DHMBA were added in an amount of 200 μL/well to have a final concentration of BSO of 100 μM and a final concentration of DHMBA of 250 μM and 500 μM. After 24 hours of culture, the culture medium was replaced with a running culture medium (XF DMEM Medium, pH 7.4, Agilent Technologies) containing 20 mM GlutaMAX (Gibco), 10 mM Pyruvate (Gibco), and glucose (10 mM), and the cells were cultured for one hour in an incubator at 37° C. without CO2 control. A 24-hour hydrated calibration plate was placed on an extracellular flux analyzer XFp and calibrated. After the calibration was completed, the calibration plate and the cell plate were exchanged, and the oxygen consumption rate (OCR) was measured. The basal respiration rate was measured first, and subsequently, oligomycin (final concentration: 2 μM) was added to inhibit ATP production. Next, FCCP (final concentration: 1 μM) was added, and the maximal respiration rate was measured. Finally, rotenon/antimycin A (final concentration: 0.25 μM) was added, and the respiration rate independent of mitochondria was measured. Each measurement was performed three times for all measurements.

[7] = test system: human renal proximal tubular cells HK-2; test: LDH cytotoxicity test under BSO oxidative stress; assay type: cell-based; conditions: 48 hours
Experimental: as §1, §2, §3, §4

[8] = test system: OPA1, DRP1 and FIS1 genes in HK-2 cells; test: qPCR expression of mitochondrial fusion- and fission-related genes; assay type: cell-based, human; conditions: co-treatment with 100 μM BSO, DHMBA 250 μM and 500 μM
Experimental: (§5) The expression levels of genes related to mitochondrial fusion (OPA1) and genes related to fission (DRP1 and FIS1) were measured in a similar manner to that described above. A comparison was performed with the control group as 1. The figure was expressed as a mean value±SD (n=4 for each group). Each expression level was corrected by the expression level of β-actin.

Keap1-Nrf2 pathway = conditions: cited from earlier work
[9] = test system: PPARα/PGC1α/NRF1/TFAM pathway genes in HK-2 cells; test: qPCR expression of mitochondrial biosynthesis-related genes; assay type: cell-based, human; conditions: co-treatment with 100 μM BSO, DHMBA 250 μM and 500 μM
Experimental: It has been reported that mitochondrial biosynthesis is regulated through activation of the PPARα/PGC1α/NRF1/TFAM pathway (Uittenbogaard M and Chiaramello A, Current pharmaceutical design, 20:[…], 2014).
as §5, with “biosynthesis” for “fusion (OPA1) and genes related to fission (DRP1 and FIS1)”, “(n=3” for “(n=4”

[10] = 100 μM BSO alone (oxidative stress stimulation)
[11] = co-treatment with 100 μM BSO, DHMBA 250 μM and 500 μM
[12] = 100 μM BSO and 500 μM DHMBA, 24 hours, OCR

With `CCCCS(=N)(=O)CCC(N)C(=O)O` (centres unmarked) [BSO, buthionine sulfoximine, reference compound] the “expression level of BIK gene” value [1, 10] was “increased”, the “expression level of ENDOG gene” value [1, 10] was “increased” and the cell viability ([2]; 100 μM BSO alone (0 μM DHMBA), CCK-8) was “low cell viability”. The “mitochondrial fragmentation (morphology)” value [3, 10] was “mitochondrial fragmentation was induced”, the “intracellular ROS” value ([4]; 100 μM BSO alone) was “increase in intracellular ROS” and the “ROS accumulation in mitochondria” value ([5]; 100 μM BSO alone) was “ROS accumulation in mitochondria was also observed”. The “damage to mitochondrial functions (OCR)” value ([6]; 100 μM BSO alone, 24-hour addition) was “not recognized” and the cytotoxicity ([7]; 100 μM BSO alone (0 μM DHMBA)) was “strong cytotoxicity”.
For `COc1c(O)cc(CO)cc1O` [DHMBA, 3,5-dihydroxy-4-methoxybenzyl alcohol], the “expression level of BIK gene” value [1, 11] was “decreased to the same levels as those of the control group”, the “expression level of ENDOG gene” value [1, 11] was “decreased to the same levels as those of the control group” and the “DHMBA concentration that increased cell viability” value ([2]; co-treatment with 100 μM BSO, CCK-8, DHMBA 1 μM to 500 μM) was no less than 3.9 µM. For the same molecule, the “mitochondrial fragmentation (morphology)” value [3, 11] was “fragmented mitochondria decreased”, the “production level of intracellular ROS” value [4, 11] was “decreased to the same level as that of the control group” and the “accumulation of intramitochondrial ROS” value [5, 11] was “inhibited”. For the same molecule, the “mitochondrial ATP production” value [6, 12] was “increased”, the mitochondrial basal respiration [6, 12] was “increased” and the mitochondrial maximal respiration [6, 12] was “increased”. For the same molecule, the “expression level of FIS1” value [8] was “reduced”, the “DHMBA concentration that inhibited cytotoxicity” value ([7]; co-treatment with 100 μM BSO, DHMBA 1 μM to 500 μM) was no less than 3.9 µM and the “cytotoxicity compared with existing antioxidant substances” value (Keap1-Nrf2 pathway; earlier finding, background art) was “less cytotoxic than existing antioxidant substances”. The “activation of radical scavenging ability and the Keap1-Nrf2 pathway, expression induction of antioxidant gene clusters (such as HO-1 and NQO1)” value (Keap1-Nrf2 pathway; literature (Fuda 2015; Joko 2017)) was “confirmed”, the “expression level of PGC1α” value [9] was “increased” and the “expression level of TEAM” value [9] was “increased”.
